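48-hour exposure; five concentrations; linearly interpolated endpoints. Here, GI50 denotes the concentration required for 50% inhibition of growth. At the TGI there is no net growth.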
Columns and labels:
Test in all cases: growth of human tumour cells (NCI), 48 h
786-0 renal = system: 786-0 renal
A498 renal = system: A498 renal
A549 NSCLC = system: A549 NSCLC
ACHN renal = system: ACHN renal
BT-549 breast = system: BT-549 breast
CAKI-1 renal = system: CAKI-1 renal
CCRF-CEM leukemia = system: CCRF-CEM leukemia
COLO 205 colon = system: COLO 205 colon
DU-145 prostate = system: DU-145 prostate
EKVX NSCLC = system: EKVX NSCLC
HCC-2998 colon = system: HCC-2998 colon
HCT-116 colon = system: HCT-116 colon
HCT-15 colon = system: HCT-15 colon
HL-60(TB) leukemia = system: HL-60(TB) leukemia
HOP-62 NSCLC = system: HOP-62 NSCLC
HOP-92 NSCLC = system: HOP-92 NSCLC
HS 578T breast = system: HS 578T breast
HT29 colon = system: HT29 colon
IGROV1 ovarian = system: IGROV1 ovarian
K-562 leukemia = system: K-562 leukemia
KM12 colon = system: KM12 colon
LOX IMVI melanoma = system: LOX IMVI melanoma
M14 melanoma = system: M14 melanoma
MALME-3M melanoma = system: MALME-3M melanoma
MCF7 breast = system: MCF7 breast
MDA-MB-231 breast = system: MDA-MB-231 breast
MDA-MB-435 = system: MDA-MB-435
MOLT-4 leukemia = system: MOLT-4 leukemia
NCI-H226 lung = system: NCI-H226 lung
NCI-H23 lung = system: NCI-H23 lung
NCI-H460 lung = system: NCI-H460 lung
NCI-H522 lung = system: NCI-H522 lung
NCI/ADR-RES ovarian = system: NCI/ADR-RES ovarian
OVCAR-3 ovarian = system: OVCAR-3 ovarian
OVCAR-4 ovarian = system: OVCAR-4 ovarian
OVCAR-5 ovarian = system: OVCAR-5 ovarian
OVCAR-8 ovarian = system: OVCAR-8 ovarian
PC-3 prostate = system: PC-3 prostate
RPMI-8226 leukemia = system: RPMI-8226 leukemia
RXF 393 renal = system: RXF 393 renal
SF-268 CNS = system: SF-268 CNS
SF-295 CNS = system: SF-295 CNS
SF-539 CNS = system: SF-539 CNS
SK-MEL-2 melanoma = system: SK-MEL-2 melanoma
SK-MEL-28 melanoma = system: SK-MEL-28 melanoma
SK-MEL-5 melanoma = system: SK-MEL-5 melanoma
SK-OV-3 ovarian = system: SK-OV-3 ovarian
SN12C renal = system: SN12C renal
SNB-19 CNS = system: SNB-19 CNS
SNB-75 CNS = system: SNB-75 CNS
SR leukemia = system: SR leukemia
SW-620 colon = system: SW-620 colon
T-47D breast = system: T-47D breast
TK-10 renal = system: TK-10 renal
U251 CNS = system: U251 CNS
UACC-257 melanoma = system: UACC-257 melanoma
UACC-62 melanoma = system: UACC-62 melanoma
UO-31 renal = system: UO-31 renal

N#Cc1c(-c2ccccc2)cc(-c2ccccc2)n(CCCC(=O)NO)c1=O
GI50 (786-0 renal): 1600 nM | TGI (786-0 renal): 5850 nM | GI50 (A498 renal): 788 nM | TGI (A498 renal): 2950 nM | GI50 (A549 NSCLC): 2200 nM | TGI (A549 NSCLC): 7950 nM | GI50 (ACHN renal): 494 nM | TGI (ACHN renal): 3590 nM | GI50 (BT-549 breast): 2770 nM | TGI (BT-549 breast): 14100 nM | GI50 (CAKI-1 renal): 473 nM | TGI (CAKI-1 renal): 2650 nM | GI50 (CCRF-CEM leukemia): 847 nM | TGI (CCRF-CEM leukemia): 7150 nM | GI50 (COLO 205 colon): 1970 nM | TGI (COLO 205 colon): 4970 nM | GI50 (DU-145 prostate): 2660 nM | TGI (DU-145 prostate): 10500 nM | GI50 (EKVX NSCLC): 1800 nM | TGI (EKVX NSCLC): 7810 nM | GI50 (HCC-2998 colon): 2170 nM | TGI (HCC-2998 colon): 8660 nM | GI50 (HCT-116 colon): 1670 nM | TGI (HCT-116 colon): 6700 nM | GI50 (HCT-15 colon): 434 nM | TGI (HCT-15 colon): 10700 nM | GI50 (HL-60(TB) leukemia): 1810 nM | TGI (HL-60(TB) leukemia): 5430 nM | GI50 (HOP-62 NSCLC): 2000 nM | TGI (HOP-62 NSCLC): 6980 nM | GI50 (HOP-92 NSCLC): 1970 nM | TGI (HOP-92 NSCLC): 7530 nM | GI50 (HS 578T breast): 1810 nM | TGI (HS 578T breast): 8500 nM | GI50 (HT29 colon): 2580 nM | TGI (HT29 colon): 8580 nM | GI50 (IGROV1 ovarian): 1690 nM | TGI (IGROV1 ovarian): 4770 nM | GI50 (K-562 leukemia): 729 nM | TGI (K-562 leukemia): 12900 nM | GI50 (KM12 colon): 1100 nM | TGI (KM12 colon): 11800 nM | GI50 (LOX IMVI melanoma): 1630 nM | TGI (LOX IMVI melanoma): 3410 nM | GI50 (M14 melanoma): 898 nM | TGI (M14 melanoma): 10100 nM | GI50 (MALME-3M melanoma): 704 nM | TGI (MALME-3M melanoma): 11500 nM | GI50 (MCF7 breast): 1700 nM | TGI (MCF7 breast): 10600 nM | GI50 (MDA-MB-231 breast): 2900 nM | TGI (MDA-MB-231 breast): 10400 nM | GI50 (MDA-MB-435): 324 nM | TGI (MDA-MB-435): 10700 nM | GI50 (MOLT-4 leukemia): 1220 nM | TGI (MOLT-4 leukemia): 5980 nM | GI50 (NCI-H226 lung): 2240 nM | TGI (NCI-H226 lung): 7410 nM | GI50 (NCI-H23 lung): 2770 nM | TGI (NCI-H23 lung): 9940 nM | GI50 (NCI-H460 lung): 1720 nM | TGI (NCI-H460 lung): 8780 nM | GI50 (NCI-H522 lung): 1330 nM | TGI (NCI-H522 lung): 5890 nM | GI50 (NCI/ADR-RES ovarian): 541 nM | TGI (NCI/ADR-RES ovarian): 3720 nM | GI50 (OVCAR-3 ovarian): 1610 nM | TGI (OVCAR-3 ovarian): 4600 nM | GI50 (OVCAR-4 ovarian): 1920 nM | TGI (OVCAR-4 ovarian): 11800 nM | GI50 (OVCAR-5 ovarian): 2300 nM | TGI (OVCAR-5 ovarian): 8430 nM | GI50 (OVCAR-8 ovarian): 1140 nM | TGI (OVCAR-8 ovarian): 8670 nM | GI50 (PC-3 prostate): 2130 nM | TGI (PC-3 prostate): 14400 nM | GI50 (RPMI-8226 leukemia): 1140 nM | TGI (RPMI-8226 leukemia): 3800 nM | GI50 (RXF 393 renal): 939 nM | TGI (RXF 393 renal): 2740 nM | GI50 (SF-268 CNS): 2310 nM | TGI (SF-268 CNS): 6720 nM | GI50 (SF-295 CNS): 2150 nM | TGI (SF-295 CNS): 5020 nM | GI50 (SF-539 CNS): 1680 nM | TGI (SF-539 CNS): 5030 nM | GI50 (SK-MEL-2 melanoma): 2020 nM | TGI (SK-MEL-2 melanoma): 10000 nM | GI50 (SK-MEL-28 melanoma): 2880 nM | TGI (SK-MEL-28 melanoma): 12700 nM | GI50 (SK-MEL-5 melanoma): 1890 nM | TGI (SK-MEL-5 melanoma): 4740 nM | GI50 (SK-OV-3 ovarian): 1980 nM | TGI (SK-OV-3 ovarian): 5230 nM | GI50 (SN12C renal): 2340 nM | TGI (SN12C renal): 10300 nM | GI50 (SNB-19 CNS): 2700 nM | TGI (SNB-19 CNS): 13000 nM | GI50 (SNB-75 CNS): 1240 nM | TGI (SNB-75 CNS): 4850 nM | GI50 (SR leukemia): 361 nM | TGI (SR leukemia): 3650 nM | GI50 (SW-620 colon): 1930 nM | TGI (SW-620 colon): 12600 nM | GI50 (T-47D breast): 1830 nM | TGI (T-47D breast): 8340 nM | GI50 (TK-10 renal): 1000 nM | TGI (TK-10 renal): 11100 nM | GI50 (U251 CNS): 1690 nM | TGI (U251 CNS): 4620 nM | GI50 (UACC-257 melanoma): 1730 nM | TGI (UACC-257 melanoma): 7380 nM | GI50 (UACC-62 melanoma): 1820 nM | TGI (UACC-62 melanoma): 5630 nM | GI50 (UO-31 renal): 392 nM | TGI (UO-31 renal): 2300 nM
